# Earlier results in patent US20090304576A1, “DEVICE FOR DELIVERY OF ANTI-CANCER AGENTS TO TISSUE” (priority 2006, published 2009).
# Conditions: diffusion in solid tissue such as brain; estimated
structure (smiles),measurement,value
O=NN(CCCl)C(=O)NCCCl [carmustine],maximum effective range from a source,about 5 mm
